We go through twelve compounds from patent EP4745137A1 (Gluetacs Therapeutics (Shanghai) Co., Ltd., priority 2023, dated 2025).

The structures appear in SMILES notation.

What all share (type): cell-based
What all share (conditions): 24 hours of compound treatment, 50 nM and 500 nM tested (concentration behind the class not stated)

For experiment [1], the target named is T1, WEE1 (Homo sapiens, UniProt P30291+Q96SW2).
T1 construct: endogenous in cells; host or cells: hPBMCs (Milecell Biotechnologies)
T1 sequence (P30291 whole entry): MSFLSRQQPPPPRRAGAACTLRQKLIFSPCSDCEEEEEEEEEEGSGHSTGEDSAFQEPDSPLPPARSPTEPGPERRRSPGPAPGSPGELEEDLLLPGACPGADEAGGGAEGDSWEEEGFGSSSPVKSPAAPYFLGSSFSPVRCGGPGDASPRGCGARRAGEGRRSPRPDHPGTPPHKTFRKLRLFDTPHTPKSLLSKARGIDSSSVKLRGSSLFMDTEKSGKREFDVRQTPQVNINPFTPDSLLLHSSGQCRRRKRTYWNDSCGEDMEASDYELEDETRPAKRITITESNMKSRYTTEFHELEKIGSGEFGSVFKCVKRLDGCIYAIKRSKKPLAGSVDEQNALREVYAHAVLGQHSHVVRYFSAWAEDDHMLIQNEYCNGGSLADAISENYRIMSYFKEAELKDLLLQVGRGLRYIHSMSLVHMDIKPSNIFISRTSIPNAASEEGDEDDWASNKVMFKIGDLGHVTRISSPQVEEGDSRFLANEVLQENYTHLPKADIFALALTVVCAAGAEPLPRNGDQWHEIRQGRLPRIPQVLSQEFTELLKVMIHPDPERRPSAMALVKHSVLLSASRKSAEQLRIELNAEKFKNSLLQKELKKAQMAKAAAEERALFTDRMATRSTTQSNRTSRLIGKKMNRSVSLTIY
T1 sequence (Q96SW2 whole entry): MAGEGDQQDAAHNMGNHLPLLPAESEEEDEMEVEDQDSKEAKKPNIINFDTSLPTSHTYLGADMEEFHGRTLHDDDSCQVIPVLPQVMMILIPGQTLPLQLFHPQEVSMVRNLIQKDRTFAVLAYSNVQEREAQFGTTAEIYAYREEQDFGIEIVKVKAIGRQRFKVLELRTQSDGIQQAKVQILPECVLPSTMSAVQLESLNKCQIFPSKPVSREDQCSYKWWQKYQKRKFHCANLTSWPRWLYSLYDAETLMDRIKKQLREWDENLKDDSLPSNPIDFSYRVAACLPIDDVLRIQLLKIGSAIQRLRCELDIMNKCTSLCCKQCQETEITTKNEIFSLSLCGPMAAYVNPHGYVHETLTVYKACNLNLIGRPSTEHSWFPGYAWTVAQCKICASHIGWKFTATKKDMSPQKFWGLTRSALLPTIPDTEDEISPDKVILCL
T1 sequence (Q16531 whole entry partner): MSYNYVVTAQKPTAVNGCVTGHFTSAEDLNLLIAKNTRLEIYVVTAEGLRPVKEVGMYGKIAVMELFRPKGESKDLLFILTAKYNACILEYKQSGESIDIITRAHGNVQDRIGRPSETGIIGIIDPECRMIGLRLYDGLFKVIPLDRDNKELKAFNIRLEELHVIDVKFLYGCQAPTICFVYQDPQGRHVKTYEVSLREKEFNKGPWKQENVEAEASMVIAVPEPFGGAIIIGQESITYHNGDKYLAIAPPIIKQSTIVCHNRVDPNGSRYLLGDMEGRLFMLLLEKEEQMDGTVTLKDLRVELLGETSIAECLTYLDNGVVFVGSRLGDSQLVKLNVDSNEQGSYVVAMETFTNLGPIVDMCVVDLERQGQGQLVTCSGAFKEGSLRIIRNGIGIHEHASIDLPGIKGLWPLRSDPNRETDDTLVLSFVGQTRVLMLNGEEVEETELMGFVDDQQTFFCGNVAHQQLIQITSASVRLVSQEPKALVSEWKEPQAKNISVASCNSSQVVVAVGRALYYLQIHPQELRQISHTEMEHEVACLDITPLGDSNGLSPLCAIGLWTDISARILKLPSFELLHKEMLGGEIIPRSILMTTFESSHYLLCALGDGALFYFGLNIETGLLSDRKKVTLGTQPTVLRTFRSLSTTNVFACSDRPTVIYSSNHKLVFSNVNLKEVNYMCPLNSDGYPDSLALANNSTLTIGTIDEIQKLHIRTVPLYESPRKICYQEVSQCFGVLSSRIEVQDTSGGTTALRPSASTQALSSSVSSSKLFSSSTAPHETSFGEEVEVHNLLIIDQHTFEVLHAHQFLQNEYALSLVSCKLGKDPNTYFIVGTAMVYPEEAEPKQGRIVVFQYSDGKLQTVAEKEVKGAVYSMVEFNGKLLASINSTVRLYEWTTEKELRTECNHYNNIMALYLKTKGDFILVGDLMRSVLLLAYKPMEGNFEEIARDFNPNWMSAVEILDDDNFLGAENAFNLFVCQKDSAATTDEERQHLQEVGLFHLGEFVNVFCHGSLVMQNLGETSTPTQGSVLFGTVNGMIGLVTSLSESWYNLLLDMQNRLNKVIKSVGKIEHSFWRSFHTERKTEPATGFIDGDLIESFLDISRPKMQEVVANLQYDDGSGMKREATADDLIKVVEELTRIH
Kind of experiment: Western-blot assay of substrate protein degradation in hPBMCs, WEE1.

Experiment [2] has as its target T2, IKZF1 (Homo sapiens, UniProt Q13422+Q96SW2).
T2 construct: endogenous in cells; host or cells: hPBMCs (Milecell Biotechnologies)
Kind of experiment: Western-blot assay of substrate protein degradation in hPBMCs, IKZF1.

Experiment [3] has as its target T3, IKZF2 (Homo sapiens, UniProt Q96SW2+Q9UKS7).
T3 construct: endogenous in cells; host or cells: hPBMCs (Milecell Biotechnologies)
Kind of experiment: Western-blot assay of substrate protein degradation in hPBMCs, IKZF2.

Experiment [4] concerns the target T4, IKZF3 (Homo sapiens, UniProt Q96SW2+Q9UKT9).
T4 construct: endogenous in cells; host or cells: hPBMCs (Milecell Biotechnologies)
Kind of experiment: Western-blot assay of substrate protein degradation in hPBMCs, IKZF3.

In experiment [5] the target is T5, CK1α (Homo sapiens, UniProt P48729+Q96SW2).
T5 construct: endogenous in cells; host or cells: hPBMCs (Milecell Biotechnologies)
T5 sequence (P48729 whole entry): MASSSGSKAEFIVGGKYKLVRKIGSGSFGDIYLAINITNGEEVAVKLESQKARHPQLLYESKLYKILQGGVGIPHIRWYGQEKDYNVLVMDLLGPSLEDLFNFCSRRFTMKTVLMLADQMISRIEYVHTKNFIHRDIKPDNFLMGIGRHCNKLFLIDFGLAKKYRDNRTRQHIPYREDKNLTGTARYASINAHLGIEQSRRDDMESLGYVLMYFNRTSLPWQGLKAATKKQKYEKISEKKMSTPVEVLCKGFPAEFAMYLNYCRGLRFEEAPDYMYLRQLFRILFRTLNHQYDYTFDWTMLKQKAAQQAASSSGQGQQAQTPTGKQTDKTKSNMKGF
T5 sequence (Q96SW2 whole entry): as the sequence (Q96SW2 whole entry) above
T5 sequence (Q16531 whole entry partner): as the sequence (Q16531 whole entry partner) above
Kind of experiment: Western-blot assay of substrate protein degradation in hPBMCs, CK1α.

Experiment [6] concerns the target T6, GSPT1 (Homo sapiens, UniProt P15170+Q96SW2).
T6 construct: endogenous in cells; host or cells: hPBMCs (Milecell Biotechnologies)
Kind of experiment: Western-blot assay of substrate protein degradation in hPBMCs, GSPT1.

T3 sequence (Q9UKS7 whole entry): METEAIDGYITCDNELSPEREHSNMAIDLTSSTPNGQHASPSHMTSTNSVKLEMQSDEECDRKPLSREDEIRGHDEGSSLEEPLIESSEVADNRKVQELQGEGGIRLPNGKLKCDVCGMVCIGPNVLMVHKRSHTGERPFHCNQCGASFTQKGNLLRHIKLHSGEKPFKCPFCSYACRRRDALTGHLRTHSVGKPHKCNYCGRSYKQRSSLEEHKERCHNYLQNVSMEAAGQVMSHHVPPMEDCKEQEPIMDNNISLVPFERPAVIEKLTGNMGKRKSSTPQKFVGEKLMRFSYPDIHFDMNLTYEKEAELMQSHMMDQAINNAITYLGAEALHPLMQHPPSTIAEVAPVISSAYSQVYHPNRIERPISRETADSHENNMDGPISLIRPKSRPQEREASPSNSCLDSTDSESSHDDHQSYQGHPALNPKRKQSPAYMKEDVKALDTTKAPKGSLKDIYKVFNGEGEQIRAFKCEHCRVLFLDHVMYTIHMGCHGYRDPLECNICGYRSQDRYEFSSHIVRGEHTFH
T3 sequence (Q96SW2 whole entry): as the sequence (Q96SW2 whole entry) above
T3 sequence (Q16531 whole entry partner): as the sequence (Q16531 whole entry partner) above
T4 sequence (Q9UKT9 whole entry): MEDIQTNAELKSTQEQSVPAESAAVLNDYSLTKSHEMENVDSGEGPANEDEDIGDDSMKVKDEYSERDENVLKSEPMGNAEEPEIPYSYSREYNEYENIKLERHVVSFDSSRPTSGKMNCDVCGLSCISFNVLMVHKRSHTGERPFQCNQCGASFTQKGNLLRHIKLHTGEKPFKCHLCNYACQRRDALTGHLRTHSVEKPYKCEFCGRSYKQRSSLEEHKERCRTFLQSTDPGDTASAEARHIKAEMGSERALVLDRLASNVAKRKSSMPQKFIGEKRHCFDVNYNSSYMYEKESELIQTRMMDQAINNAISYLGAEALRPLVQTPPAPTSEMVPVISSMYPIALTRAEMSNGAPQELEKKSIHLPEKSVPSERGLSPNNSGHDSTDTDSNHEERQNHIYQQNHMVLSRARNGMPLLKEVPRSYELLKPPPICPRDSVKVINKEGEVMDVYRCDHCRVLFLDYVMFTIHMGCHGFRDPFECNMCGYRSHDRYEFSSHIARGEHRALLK
T4 sequence (Q96SW2 whole entry): as the sequence (Q96SW2 whole entry) above
T4 sequence (Q16531 whole entry partner): as the sequence (Q16531 whole entry partner) above
T6 sequence (P15170 whole entry): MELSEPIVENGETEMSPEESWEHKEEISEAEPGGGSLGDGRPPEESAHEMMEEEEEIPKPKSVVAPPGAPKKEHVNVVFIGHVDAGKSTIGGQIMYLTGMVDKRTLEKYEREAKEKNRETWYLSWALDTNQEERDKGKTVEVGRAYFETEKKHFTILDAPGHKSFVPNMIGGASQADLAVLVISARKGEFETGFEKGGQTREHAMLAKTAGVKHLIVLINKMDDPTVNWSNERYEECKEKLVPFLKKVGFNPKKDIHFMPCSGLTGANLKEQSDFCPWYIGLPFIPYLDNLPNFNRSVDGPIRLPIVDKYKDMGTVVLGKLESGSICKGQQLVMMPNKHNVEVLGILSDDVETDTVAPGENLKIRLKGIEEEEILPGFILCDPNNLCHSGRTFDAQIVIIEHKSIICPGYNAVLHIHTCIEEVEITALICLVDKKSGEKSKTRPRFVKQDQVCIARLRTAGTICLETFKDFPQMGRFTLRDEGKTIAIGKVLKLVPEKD
T6 sequence (Q96SW2 whole entry): as the sequence (Q96SW2 whole entry) above
T6 sequence (Q16531 whole entry partner): as the sequence (Q16531 whole entry partner) above

Regarding `COc1cccc(N2CCN(Cc3ccc4c(c3)C(=O)N(C3CCC(=O)NC3=O)C4=O)CC2)c1` (stereo not drawn) [GT-06288, 2-(2,6-dioxopiperidin-3-yl)-5-((4-(3-methoxyphenyl)piperazin-1-yl)methyl)isoindoline-1,3-dione], in experiment [1], the “Weel substrate protein remaining %” value is listed as “B (80%< substrate protein remaining %≤ 100%)”. The “IKZF 1 substrate protein remaining %” value in experiment [2] was “B (80%< substrate protein remaining %≤ 100%)”. Besides, in experiment [3], the “IKZF2 substrate protein remaining %” value was “B (80%< substrate protein remaining %≤ 100%)”. Also, the “IKZF3 substrate protein remaining %” value in experiment [4] is “B (80%< substrate protein remaining %≤ 100%)”. In experiment [5], the “CK1a substrate protein remaining %” value is “B (80%< substrate protein remaining %≤ 100%)”. Further, the “GSPT1 substrate protein remaining %” value in experiment [6] is recorded as “A (0% ≤ substrate protein remaining % ≤ 80%)”.
As to `O=C1CCC(N2C(=O)c3ccc(CN4CCN(c5cccc(Br)c5)CC4)cc3C2=O)C(=O)N1` (stereo not drawn) [GT-06289, 5-((4-(3-bromophenyl)piperazin-1-yl)methyl)-2-(2,6-dioxopiperidin-3-yl)isoindoline-1,3-dione], the “Weel substrate protein remaining %” value in experiment [1] was “B (80%< substrate protein remaining %≤ 100%)”. The “IKZF 1 substrate protein remaining %” value in experiment [2] is listed as “B (80%< substrate protein remaining %≤ 100%)”. Moreover, the “IKZF2 substrate protein remaining %” value in experiment [3] was “B (80%< substrate protein remaining %≤ 100%)”. For the same compound, the “IKZF3 substrate protein remaining %” value in experiment [4] is “B (80%< substrate protein remaining %≤ 100%)”. For the same compound, the “CK1a substrate protein remaining %” value in experiment [5] is on record as “B (80%< substrate protein remaining %≤ 100%)”. For the same compound, in experiment [6], the “GSPT1 substrate protein remaining %” value is “A (0% ≤ substrate protein remaining % ≤ 80%)”.
Consider `O=C1CCC(N2C(=O)c3ccc(CN4CCN(c5ccc(C(F)(F)F)cc5)CC4)cc3C2=O)C(=O)N1` (stereo not drawn) [GT-06290, 2-(2,6-dioxopiperidin-3-yl)-5-((4-(4-(trifluoromethyl)phenyl)piperazin-1-yl)methyl)isoindoline-1,3-dione], for which the “Weel substrate protein remaining %” value in experiment [1] was “B (80%< substrate protein remaining %≤ 100%)”. The “IKZF 1 substrate protein remaining %” value in experiment [2] is “B (80%< substrate protein remaining %≤ 100%)”. For the same compound, the “IKZF2 substrate protein remaining %” value in experiment [3] is given as “B (80%< substrate protein remaining %≤ 100%)”. In experiment [4], the “IKZF3 substrate protein remaining %” value was “B (80%< substrate protein remaining %≤ 100%)”. Further, the “CK1a substrate protein remaining %” value in experiment [5] is “B (80%< substrate protein remaining %≤ 100%)”. Moreover, the “GSPT1 substrate protein remaining %” value in experiment [6] is recorded as “A (0% ≤ substrate protein remaining % ≤ 80%)”.
For `O=C1CCC(N2C(=O)c3ccc(CN4CCN(c5cccc(F)c5)CC4)cc3C2=O)C(=O)N1` (stereo not drawn) [GT-06291, 2-(2,6-dioxopiperidin-3-yl)-5-((4-(3-fluorophenyl)piperazin-1-yl)methyl)isoindoline-1,3-dione], the “Weel substrate protein remaining %” value in experiment [1] is recorded as “B (80%< substrate protein remaining %≤ 100%)”. Further, the “IKZF 1 substrate protein remaining %” value in experiment [2] was “B (80%< substrate protein remaining %≤ 100%)”. Besides, in experiment [3], the “IKZF2 substrate protein remaining %” value is given as “B (80%< substrate protein remaining %≤ 100%)”. Also, in experiment [4], the “IKZF3 substrate protein remaining %” value is “B (80%< substrate protein remaining %≤ 100%)”. In addition, in experiment [5], the “CK1a substrate protein remaining %” value is recorded as “B (80%< substrate protein remaining %≤ 100%)”. Also, the “GSPT1 substrate protein remaining %” value in experiment [6] was “A (0% ≤ substrate protein remaining % ≤ 80%)”.
For `O=C1CCC(N2C(=O)c3ccc(CN4CCN(c5ccc(F)cc5)CC4)cc3C2=O)C(=O)N1` (stereo not drawn) [GT-06292, 2-(2,6-dioxopiperidin-3-yl)-5-((4-(4-fluorophenyl)piperazin-1-yl)methyl)isoindoline-1,3-dione], the “Weel substrate protein remaining %” value in experiment [1] is given as “B (80%< substrate protein remaining %≤ 100%)”. In addition, in experiment [2], the “IKZF 1 substrate protein remaining %” value is on record as “B (80%< substrate protein remaining %≤ 100%)”. The “IKZF2 substrate protein remaining %” value in experiment [3] is recorded as “B (80%< substrate protein remaining %≤ 100%)”. Moreover, in experiment [4], the “IKZF3 substrate protein remaining %” value was “B (80%< substrate protein remaining %≤ 100%)”. Besides, the “CK1a substrate protein remaining %” value in experiment [5] is reported as “B (80%< substrate protein remaining %≤ 100%)”. The “GSPT1 substrate protein remaining %” value in experiment [6] was “A (0% ≤ substrate protein remaining % ≤ 80%)”.
As for `O=C1CCC(N2C(=O)c3ccc(CN4CCN(c5ccccc5Br)CC4)cc3C2=O)C(=O)N1` (stereo not drawn) [GT-06293, 5-((4-(2-bromophenyl)piperazin-1-yl)methyl)-2-(2,6-dioxopiperidin-3-yl)isoindoline-1,3-dione], the “Weel substrate protein remaining %” value in experiment [1] is listed as “B (80%< substrate protein remaining %≤ 100%)”. In experiment [2], the “IKZF 1 substrate protein remaining %” value is listed as “B (80%< substrate protein remaining %≤ 100%)”. The “IKZF2 substrate protein remaining %” value in experiment [3] was “B (80%< substrate protein remaining %≤ 100%)”. For the same compound, the “IKZF3 substrate protein remaining %” value in experiment [4] is “B (80%< substrate protein remaining %≤ 100%)”. In addition, in experiment [5], the “CK1a substrate protein remaining %” value is reported as “B (80%< substrate protein remaining %≤ 100%)”. Moreover, the “GSPT1 substrate protein remaining %” value in experiment [6] is “A (0% ≤ substrate protein remaining % ≤ 80%)”.
As for `O=C1CCC(N2C(=O)c3ccc(CN4CCN(c5ccc(Br)cc5)CC4)cc3C2=O)C(=O)N1` (stereo not drawn) [GT-06295, 5-((4-(4-bromophenyl)piperazin-1-yl)methyl)-2-(2,6-dioxopiperidin-3-yl)isoindoline-1,3-dione], the “Weel substrate protein remaining %” value in experiment [1] is recorded as “B (80%< substrate protein remaining %≤ 100%)”. Besides, in experiment [2], the “IKZF 1 substrate protein remaining %” value is on record as “B (80%< substrate protein remaining %≤ 100%)”. Moreover, the “IKZF2 substrate protein remaining %” value in experiment [3] was “B (80%< substrate protein remaining %≤ 100%)”. Besides, in experiment [4], the “IKZF3 substrate protein remaining %” value was “B (80%< substrate protein remaining %≤ 100%)”. Moreover, the “CK1a substrate protein remaining %” value in experiment [5] is “B (80%< substrate protein remaining %≤ 100%)”. In addition, the “GSPT1 substrate protein remaining %” value in experiment [6] is recorded as “A (0% ≤ substrate protein remaining % ≤ 80%)”.
Regarding `Cc1ccccc1N1CCN(Cc2ccc3c(c2)C(=O)N(C2CCC(=O)NC2=O)C3=O)CC1` (stereo not drawn) [GT-06296, 2-(2,6-dioxopiperidin-3-yl)-5-((4-(o-tolyl)piperazin-1-yl)methyl)isoindoline-1,3-dione], the “Weel substrate protein remaining %” value in experiment [1] is “B (80%< substrate protein remaining %≤ 100%)”. Further, in experiment [2], the “IKZF 1 substrate protein remaining %” value is reported as “B (80%< substrate protein remaining %≤ 100%)”. Besides, in experiment [3], the “IKZF2 substrate protein remaining %” value is on record as “B (80%< substrate protein remaining %≤ 100%)”. In experiment [4], the “IKZF3 substrate protein remaining %” value is reported as “B (80%< substrate protein remaining %≤ 100%)”. Also, the “CK1a substrate protein remaining %” value in experiment [5] was “B (80%< substrate protein remaining %≤ 100%)”. In experiment [6], the “GSPT1 substrate protein remaining %” value is given as “A (0% ≤ substrate protein remaining % ≤ 80%)”.
Regarding `O=C1CCC(N2C(=O)c3ccc(CN4CCN(c5c(Cl)cccc5Cl)CC4)cc3C2=O)C(=O)N1` (stereo not drawn) [GT-06297, 5-((4-(2,6-dichlorophenyl)piperazin-1-yl)methyl)-2-(2,6-dioxopiperidin-3-yl)isoindoline-1,3-dione], the “Weel substrate protein remaining %” value in experiment [1] was “B (80%< substrate protein remaining %≤ 100%)”. In addition, the “IKZF 1 substrate protein remaining %” value in experiment [2] is “B (80%< substrate protein remaining %≤ 100%)”. Further, the “IKZF2 substrate protein remaining %” value in experiment [3] is on record as “B (80%< substrate protein remaining %≤ 100%)”. In addition, the “IKZF3 substrate protein remaining %” value in experiment [4] is on record as “B (80%< substrate protein remaining %≤ 100%)”. Besides, the “CK1a substrate protein remaining %” value in experiment [5] was “B (80%< substrate protein remaining %≤ 100%)”. The “GSPT1 substrate protein remaining %” value in experiment [6] was “A (0% ≤ substrate protein remaining % ≤ 80%)”.
For the compound `O=C1CCC(N2C(=O)c3ccc(CN4CCN(c5ccc(Cl)c(Cl)c5)CC4)cc3C2=O)C(=O)N1` (stereo not drawn) [GT-06298, 5-((4-(3,4-dichlorophenyl)piperazin-1-yl)methyl)-2-(2,6-dioxopiperidin-3-yl)isoindoline-1,3-dione], the “Weel substrate protein remaining %” value in experiment [1] is recorded as “B (80%< substrate protein remaining %≤ 100%)”. Moreover, the “IKZF 1 substrate protein remaining %” value in experiment [2] was “B (80%< substrate protein remaining %≤ 100%)”. Besides, in experiment [3], the “IKZF2 substrate protein remaining %” value was “B (80%< substrate protein remaining %≤ 100%)”. The “IKZF3 substrate protein remaining %” value in experiment [4] was “B (80%< substrate protein remaining %≤ 100%)”. The “CK1a substrate protein remaining %” value in experiment [5] is “B (80%< substrate protein remaining %≤ 100%)”. For the same compound, in experiment [6], the “GSPT1 substrate protein remaining %” value is reported as “A (0% ≤ substrate protein remaining % ≤ 80%)”.
Turning to `O=C1CCC(N2C(=O)c3ccc(CN4CCN(c5cc(Cl)cc(Cl)c5)CC4)cc3C2=O)C(=O)N1` (stereo not drawn) [GT-06299, 5-((4-(3,5-dichlorophenyl)piperazin-1-yl)methyl)-2-(2,6-dioxopiperidin-3-yl)isoindoline-1,3-dione], the “Weel substrate protein remaining %” value in experiment [1] is reported as “B (80%< substrate protein remaining %≤ 100%)”. The “IKZF 1 substrate protein remaining %” value in experiment [2] was “B (80%< substrate protein remaining %≤ 100%)”. In experiment [3], the “IKZF2 substrate protein remaining %” value is on record as “B (80%< substrate protein remaining %≤ 100%)”. Besides, in experiment [4], the “IKZF3 substrate protein remaining %” value is “B (80%< substrate protein remaining %≤ 100%)”. The “CK1a substrate protein remaining %” value in experiment [5] is “B (80%< substrate protein remaining %≤ 100%)”. Also, the “GSPT1 substrate protein remaining %” value in experiment [6] is “A (0% ≤ substrate protein remaining % ≤ 80%)”.
With `O=C1CCC(N2C(=O)c3ccc(CN4CCN(c5cccc(F)c5F)CC4)cc3C2=O)C(=O)N1` (stereo not drawn) [GT-06300, 5-((4-(2,3-difluorophenyl)piperazin-1-yl)methyl)-2-(2,6-dioxopiperidin-3-yl)isoindoline-1,3-dione], the “Weel substrate protein remaining %” value in experiment [1] is “B (80%< substrate protein remaining %≤ 100%)”. Further, the “IKZF 1 substrate protein remaining %” value in experiment [2] is “B (80%< substrate protein remaining %≤ 100%)”. Also, the “IKZF2 substrate protein remaining %” value in experiment [3] is recorded as “B (80%< substrate protein remaining %≤ 100%)”. Besides, the “IKZF3 substrate protein remaining %” value in experiment [4] is listed as “B (80%< substrate protein remaining %≤ 100%)”. Moreover, in experiment [5], the “CK1a substrate protein remaining %” value is on record as “B (80%< substrate protein remaining %≤ 100%)”. For the same compound, the “GSPT1 substrate protein remaining %” value in experiment [6] is on record as “A (0% ≤ substrate protein remaining % ≤ 80%)”.
